Laboratory results reported in publication PMC8377444 (Pharmacology Research & Perspectives, 2021).

Legend:
[1] = Plasma pharmacokinetics, single 25 mg dose fed / food effect; format: in vivo, human; settings: high-fat, high-calorie meal
mouse models of SLE = settings: cited from earlier work
[2] = Treatment-emergent adverse events, single ascending dose; format: in vivo, human
TLR7/8 [3] = settings: in vitro and ex vivo; cited from earlier work
[4] = Safety and tolerability assessments, whole study; format: in vivo, human
[5] = Safety under fed conditions; format: in vivo, human; settings: single dose 25 mg
TLR7/8 [6] = assay: Ex vivo R848-stimulated whole blood cytokine release immunoassay, IL-6 secretion; format: in vivo, human

## N#Cc1ccc(N2C[C@H](N)C[C@H](C(F)(F)F)C2)c2cccnc12 [enpatoran]
[1]
  Decrease in CL/F, fed versus fasting: approximately 25%
Mouse models of SLE
  Disease activity in mouse models of SLE: suppress disease activity
Mouse models of SLE; lowest efficacious dose in mouse models of SLE
  Sustained inhibition of IL-6: 60%
[2]; SAD cohorts
  Study intervention-related flatulence: three
[2]; single dose 3 mg, n = 6
  TEAE: Flatulence: 4 (66.7) Number (%) of participants
TLR7/8 [3]
  Activation of TLR7/8: inhibit the activation of TLR7/8
[4]; Parts A and B
  Dose dependence of TEAEs: No dose‐dependent TEAEs were observed
[4]; Parts A and B, all TEAEs
  Severity of TEAEs: mild to moderate
[4]; single and multiple oral doses up to 200 mg, fasting or fed
  Tolerability: well tolerated
[4]; whole study
  Deaths: no deaths
  Discontinuations due to TEAEs: no discontinuations due to TEAEs
  Serious AEs: No serious AEs occurred
[4]; whole study period
  Changes in laboratory values, vital signs or ECGs: No clinically relevant changes
[5]
  TEAEs reported during Part C: no TEAEs were reported
TLR7/8 [6]; 200 mg QD, 25 mg BID and 50 mg BID
  Inhibition of IL-6 secretion maintained throughout the dosing interval: At least 60%
TLR7/8 [6]; doses up to 200 mg
  Dose with maximum inhibition of ex vivo-stimulated IL-6 secretion: 200 mg
TLR7/8 [6]; post-dose
  Time of peak TLR7/8 target modulation: 2 h
